system: NMNAT2; assay: NMNAT2-Hibit nano-luciferase activity in stably transfected U87MG cells, various concentrations, 24 hours; format: cell-based; conditions: U87MG cells stably transfected with NMNAT2-Hibit luc plasmid
Method: Selected compounds were tested in vitro. U87MG cells were stably transfected with NMNAT2-Hibit luc plasmid. Cells were treated with a test compound at various concentrations for 24 hours. Cells were then collected and assayed for nano-luciferase activity.

| Structure (SMILES) | E: compound efficacy for NMNAT2 activation (concentration giving >25% increase in NMNAT2 luciferase activity) |
| --- | --- |
| Cc1ccc(C)c(Cn2cc([C@H]3C[C@@H]3C(=O)NCc3ccc(C)o3)c3ccccc32)c1 (racemic) [BC20345] | + (“+” >25% increase in NMNAT2 luciferase activity at >25 μM.) |
| Cc1ccc(C)c(Cn2cc([C@H]3C[C@@H]3C(=O)NCc3ccncc3)c3ccccc32)c1 (racemic) [BC20352] | + (“+” >25% increase in NMNAT2 luciferase activity at >25 μM.) |
| Cc1ccc(CNC(=O)c2ccc3c(c2)c(C)c(C)n3Cc2ccccc2F)o1 [BC20193] | + (“+” >25% increase in NMNAT2 luciferase activity at >25 μM.) |
| Cc1ccccc1Cn1cc(CCCC(=O)NCc2cccc(F)c2)c2ccccc21 [BC20152] | ++ (“++” >25% increase in NMNAT2 luciferase activity at >1 μM ≤25 μM.) |
| CCCCN(CC)Cc1ccc(CNC(=O)C2CCCc3c2c2ccccc2n3Cc2cccc(F)c2)o1 (stereo not shown) [BC20381] | ++ (“++” >25% increase in NMNAT2 luciferase activity at >1 μM ≤25 μM.) |
| Cc1ccc(C)c(Cn2c3c(c4ccccc42)CN(C(=O)Nc2cccc(C)c2C)CC3)c1 [BC20255] | + (“+” >25% increase in NMNAT2 luciferase activity at >25 μM.) |
| Cc1ccc(Cn2c3c(c4ccccc42)C(C(=O)NCc2ccncc2)CCC3)cc1 (stereo not shown) [BC20390] | + (“+” >25% increase in NMNAT2 luciferase activity at >25 μM.) |
| Cc1cccc(NC(=O)C2CCc3c(c4ccccc4n3Cc3cccc(F)c3)C2)c1C (stereo not shown) [BC20229] | + (“+” >25% increase in NMNAT2 luciferase activity at >25 μM.) |
| Cc1cccc(NC(=O)c2ccc3c(c2)c(C)c(C)n3Cc2ccccc2F)c1C [BC20246] | ++ (“++” >25% increase in NMNAT2 luciferase activity at >1 μM ≤25 μM.) |
| Cc1cccc(Cn2cc(CCCC(=O)NCc3cccnc3)c3ccccc32)c1 [BC20173] | ++ (“++” >25% increase in NMNAT2 luciferase activity at >1 μM ≤25 μM.) |
| COc1ccccc1CNC(=O)c1ccc2c(c1)c(C)c(C)n2Cc1ccccc1F [BC20106] | ++ (“++” >25% increase in NMNAT2 luciferase activity at >1 μM ≤25 μM.) |
| O=C(CCCc1cn(Cc2cccc(F)c2)c2ccccc12)NCCc1ccccc1 [BC20146] | ++ (“++” >25% increase in NMNAT2 luciferase activity at >1 μM ≤25 μM.) |
| COc1ccccc1CNC(=O)Cn1c2c(c3ccccc31)CC(C(=O)NCc1ccco1)CC2 (stereo not shown) [BC20289] | + (“+” >25% increase in NMNAT2 luciferase activity at >25 μM.) |
| O=C(CCCc1cn(Cc2ccccc2F)c2ccccc12)NCC1CCCO1 (stereo not shown) [BC20123] | ++ (“++” >25% increase in NMNAT2 luciferase activity at >1 μM ≤25 μM.) |
| COc1ccc(CNC(=O)N2CCc3c(c4ccccc4n3CC(=O)NCc3ccco3)C2)cc1 [BC20330] | ++ (“++” >25% increase in NMNAT2 luciferase activity at >1 μM ≤25 μM.) |
| COc1cccc(CNC(=O)C2CCc3c(c4ccccc4n3CC(=O)NCc3ccco3)C2)c1 (stereo not shown) [BC20241] | ++ (“++” >25% increase in NMNAT2 luciferase activity at >1 μM ≤25 μM.) |
| COc1ccccc1CNC(=O)C1CCc2c(c3ccccc3n2Cc2cc(C)ccc2C)C1 (stereo not shown) [BC20187] | + (“+” >25% increase in NMNAT2 luciferase activity at >25 μM.) |
| O=C(CCCc1cn(Cc2cccc(F)c2)c2ccccc12)NCc1cccc(F)c1 [BC20139] | ++ (“++” >25% increase in NMNAT2 luciferase activity at >1 μM ≤25 μM.) |
| Cc1ccc(Cn2cc([C@H]3C[C@@H]3C(=O)NCc3ccco3)c3ccccc32)cc1 (racemic) [BC20293] | ++ (“++” >25% increase in NMNAT2 luciferase activity at >1 μM ≤25 μM.) |
| COc1ccc(CN2CC(C(=O)c3cn(Cc4ccccc4F)c4ccccc34)CC2=O)c(OC)c1 (stereo not shown) [BC20304] | + (“+” >25% increase in NMNAT2 luciferase activity at >25 μM.) |
| Cc1ccc(Cn2cc([C@H]3C[C@@H]3C(=O)NCc3cccnc3)c3ccccc32)cc1 (racemic) [BC20301] | + (“+” >25% increase in NMNAT2 luciferase activity at >25 μM.) |
| COc1ccccc1CNC(=O)Cn1cc(C(=O)c2ccc(Cl)cc2)c2ccccc21 [BC20180] | ++ (“++” >25% increase in NMNAT2 luciferase activity at >1 μM ≤25 μM.) |

| Structure (SMILES) | E: compound efficacy for NMNAT2 activation (concentration giving >25% increase in NMNAT2 luciferase activity) |
| --- | --- |
| CC(Cc1ccco1)NC(=O)CCCc1cn(Cc2ccccc2F)c2ccccc12 (stereo not shown) [BC20130] | ++ (“++” >25% increase in NMNAT2 luciferase activity at >1 μM ≤25 μM.) |
| CC(Cc1ccco1)NC(=O)CCCc1cn(Cc2cccc(F)c2)c2ccccc12 (stereo not shown) [BC20145] | ++ (“++” >25% increase in NMNAT2 luciferase activity at >1 μM ≤25 μM.) |
| Cc1cccc(CN2CCc3cn(Cc4cc(C)ccc4C)c4cccc(c34)C2=O)c1 [BC20261] | + (“+” >25% increase in NMNAT2 luciferase activity at >25 μM.) |
| Cc1c(C)n(Cc2cccc(F)c2)c2ccc(C(=O)NCC3CCCO3)cc12 (stereo not shown) [BC20110] | +++ (“+++” >25% increase in NMNAT2 luciferase activity at ≤1 μM.) |
| Cc1ccc(Cn2cc(C3CCN(Cc4cccc(F)c4)C(=O)C3)c3ccccc32)cc1 (stereo not shown) [BC20231] | ++ (“++” >25% increase in NMNAT2 luciferase activity at >1 μM ≤25 μM.) |
| Cc1ccc(C)c(Cn2c3c(c4ccccc42)CC(C(=O)NCc2ccco2)CC3)c1 (stereo not shown) [BC20102] | ++ (“++” >25% increase in NMNAT2 luciferase activity at >1 μM ≤25 μM.) |
| O=C(NCc1cccnc1)C1CCc2c(c3ccccc3n2Cc2ccncc2)C1 (stereo not shown) [BC20317] | + (“+” >25% increase in NMNAT2 luciferase activity at >25 μM.) |
| Cc1ccc(CNC(=O)N2CCc3c(c4ccccc4n3Cc3ccncc3)C2)cc1 [BC20337] | + (“+” >25% increase in NMNAT2 luciferase activity at >25 μM.) |
| COc1cccc(CNC(=O)Cn2c3c(c4ccccc42)CC(C(=O)NCc2ccco2)CC3)c1 (stereo not shown) [BC20290] | + (“+” >25% increase in NMNAT2 luciferase activity at >25 μM.) |
| COc1ccccc1CNC(=O)C1CCc2c(c3ccccc3n2Cc2ccncc2)C1 (stereo not shown) [BC20282] | + (“+” >25% increase in NMNAT2 luciferase activity at >25 μM.) |
| Cc1c(C)n(Cc2cccc(F)c2)c2ccc(C(=O)NCc3cccc(F)c3)cc12 [BC20112] | +++ (“+++” >25% increase in NMNAT2 luciferase activity at ≤1 μM.) |
| Cc1c(C)n(Cc2ccccc2F)c2ccc(C(=O)N3CCc4occc4C3)cc12 [BC20247] | + (“+” >25% increase in NMNAT2 luciferase activity at >25 μM.) |
| CCCCN(CC)Cc1ccc(CNC(=O)C2CCc3c(c4ccccc4n3Cc3cc(C)ccc3C)C2)o1 (stereo not shown) [BC20219] | ++ (“++” >25% increase in NMNAT2 luciferase activity at >1 μM ≤25 μM.) |
| Cc1ccc(C)c(Cn2cc([C@H]3C[C@@H]3C(=O)N(CCN(C)C)Cc3ccco3)c3ccccc32)c1 (racemic) [BC20364] | +++ (“+++” >25% increase in NMNAT2 luciferase activity at ≤1 μM.) |
| O=C(NCc1cccc(F)c1)N1CCc2c(c3ccccc3n2Cc2cccc(F)c2)C1 [BC20309] | + (“+” >25% increase in NMNAT2 luciferase activity at >25 μM.) |
| Cc1ccc(C)c(Cn2c(C(F)F)c(CCC(=O)NCCc3ccccc3)c3ccccc32)c1 [BC20402] | ++ (“++” >25% increase in NMNAT2 luciferase activity at >1 μM ≤25 μM.) |
| Cc1cccc(CNC(=O)C2CCc3c(c4ccccc4n3Cc3cc(C)ccc3C)C2)c1 (stereo not shown) [BC20186] | + (“+” >25% increase in NMNAT2 luciferase activity at >25 μM.) |
| Cc1ccccc1CNC(=O)C1CCCc2c1c1ccccc1n2Cc1cccc(F)c1 (stereo not shown) [BC20372] | + (“+” >25% increase in NMNAT2 luciferase activity at >25 μM.) |
| O=C(NCc1cccnc1)C1CCc2c(c3ccccc3n2Cc2cccc(F)c2)C1 (stereo not shown) [BC20258] | ++ (“++” >25% increase in NMNAT2 luciferase activity at >1 μM ≤25 μM.) |
| Cc1cccc(Cn2cc(CCCC(=O)NCc3ccccc3C)c3ccccc32)c1 [BC20167] | +++ (“+++” >25% increase in NMNAT2 luciferase activity at ≤1 μM.) |
| O=C(c1ccco1)N1CCN(C(=O)C2CCc3c(c4ccccc4n3Cc3cccc(F)c3)C2)CC1 (stereo not shown) [BC20257] | + (“+” >25% increase in NMNAT2 luciferase activity at >25 μM.) |

From patent publication US20220169632A1, “METHODS AND MATERIALS FOR INCREASING OR MAINTAINING NICOTINAMIDE MONONUCLEOTIDE ADENYLYL TRANSFERASE-2 (NMNAT2) POLYPEPTIDE LEVELS” (University of Pittsburgh - Of the Commonwealth System of …, priority 2019, published 2022)
